What was measured:
U-937 cells = assay: H2O2-induced apoptosis (sub-G1 DNA, propidium iodide) in U-937 cells; assay type: cell-based, human; conditions: 10 μM 24 hours, then 1 mM H2O2 18 hours
Experimental: (§1) Ethanol-fixed cells were stained with propidium iodide and monitored for sub-G1 DNA (upper panels). The percentage (mean±S.E.) of cells with sub-G1 DNA was determined from three separate experiments (lower panels).
(§2) Ethanol-fixed cells were stained with propidium iodide and monitored for sub-G1 DNA by FACScan (Becton-Dickinson) (FIGS. 3A and 3C). The percentage (mean±S.E.) of cells with sub-G1 DNA was determined from three separate experiments (FIGS. 3B and 3D).

[1] = system: mouse embryo fibroblasts (MEFs); assay: H2O2-induced apoptosis (sub-G1 DNA, propidium iodide) in MEFs; assay type: cell-based; conditions: 10 μM 24 hours, then 1 mM H2O2 18 hours
Experimental: as §1, §2

[2] = system: mouse embryo fibroblasts (MEFs); assay: Mitochondrial transmembrane potential (Rhodamine123 flow cytometry) in MEFs; assay type: cell-based; conditions: 10 μM 24 hours
Experimental: The cells were stained with 50 ng/ml Rhodamine123 for 15 minutes and analyzed by flow cytometry (left panels).
The cells were stained with 50 ng/ml Rhodamine123 (Molecular Probes) for 15 minutes at 37° C. Samples were analyzed by flow cytometry using 488 nm excitation and measurement of emission through a 576/26 (ethidium) bandpass filter (FIGS. 2A and 2B, left panels).

Compound: Cc1ccc(NC(=O)c2ccc(CN3CCN(C)CC3)cc2)cc1Nc1nccc(-c2cccnc2)n1 [STI571, 4-[(4-Methyl-1-piperazinyl)methyl]-N-[4-methyl-3-[[4-(3-pyridinyl)-2-pyrimidinyl]amino-]-phenyl]benzanide methanesulfonate]
- inhibition of H2O2-induced apoptosis (cells with sub-G1 DNA) (U-937 cells): over 80%
- decrease of H2O2-induced apoptosis (cells with sub-G1 DNA) [1]: 50%
- effect of STI571 alone on mitochondrial transmembrane potential ([2]; no H2O2): no apparent effect
- H2O2-induced decrease in mitochondrial transmembrane potential ([2]; then 1 mM H2O2 6 hours): substantially inhibited
- inhibitory effects on loss of mitochondrial transmembrane potential at longer periods of H2O2 exposure ([2]; then H2O2 18 hours): detectable
